These results are taken from patent US8816095B2, “Na channels, disease, and related assays and compositions” (Georgetown University, priority 2008, dated 2014).

The target of one test is T1, hNav1.7 (Homo sapiens, UniProt Q15858).
T1 construct: expressed in transfected cells; host or cells: HEK293
Briefly: Fluorescent (FRET) based sodium channel assay, hNav1.7. The class given is cell-based. The conditions noted are these: HEK293 stably transfected with hNav1.7, 20 μM veratridine, read-out: hNav 1.7 IC50. The procedure: Two isoforms of the channel were examined: hNav1.5, a cardiac sodium channel associated with arrhythmias, and hNav1.7, an isoform found in the peripheral nervous system.
HEK293 cells stably transfected with either hNav1.5 or hNav1.7 were plated at approximately 11,000-20,000 cells/well in flat bottom, poly-D-lysine coated black-wall, clear-bottom, 384-well plates (Becton Dickinson, Bedford, Mass.), and incubated overnight at 37° C. in a 10% CO2 atmosphere in growth medium. Cells were washed with 0.03 mL of Dulbecco's phosphate buffered saline (D-PBS) containing calcium and magnesium. Cells were then incubated with 0.025 mL of a solution containing 10 μM CC2-DMPE and 0.02% pluronic acid in D-PBS with calcium and magnesium; supplemented with 10 mM glucose, and 10 mM Hepes-NaOH, pH 7.4. […] Afterwards, cells were incubated in the dark at 25° C. for 45 min with 0.025 mL of a solution containing 5 μM DiSBAC2(3) in VIPR-S, in the absence or presence of test compound. At the end of the incubation period, the plate was placed in a FLIPR TETRA instrument (MDS Analytical Technologies, Sunnyvale Calif.), illuminated at 390-420 nm, and fluorescence emissions were recorded at approximately 1 Hz at 460 and 580 nm. Following a 7 second baseline reading, 0.025 mL of VIPR-S containing 10 μM veratridine for Nav1.5 or 20 μM veratridine for Nav1.7 was added to each well, and the emissions of both dyes were recorded for an additional 33 seconds. The change in fluorescence resonance energy transfer (FRET) ratio (F/F0) was calculated as: F/F0=((A460/A580/(I460/I580) where A and I represent the readings after or before addition of veratridine, respectively, at the indicated wavelengths. For I, the readings from 2-5 seconds were averaged, and for A, readings from 3 seconds after the signal had reached a plateau level (usually within 30-40 s) were also averaged. Triplicate measurements were performed for each experimental condition and the data were averaged.

A short description of test [1]: Incidence of prostate cancer in epileptic men treated with sodium channel blockers. On the set-up: species or system human. The conditions noted are these: 1427 epileptic men given drug vs 14270 control, 1994 to 2003. An excerpt: The incidence of prostate cancer in epileptic men treated with sodium channel blockers was studied from 1994 to 2003. In the study, 1427 epileptic men were given phenyloin as a sodium channel blocker while 14270 epileptic men were not given a sodium channel blocker (control).

The next test deals with PC-3 cells. Put plainly: PC-3 cell growth inhibition assay (WST-8). The class given is cell-based. The conditions noted are these: Homo sapiens, WST-8, 48 hours. As to the method:
The effect of compound 2 was studied on the proliferation of human androgen independent prostate cancer (PC-3) cells, using a cell viability assay with WST-8. […].
PC-3 cells were added to the wells of a 96 well plate at 7500 cells per well in 100 uL of RPMI medium with 10% serum and allowed to plate down overnight. The medium was then removed and replaced with serum free medium containing the appropriate concentration of drug. DMSO concentration was kept below 1%. At this time WST-8 cell counting reagent was added to the control (T=0) wells and allowed to incubate for 2 hours and the absorbance was read at 450 nm to determine the starting number of cells per well. The plates were incubated for 48 hours, the medium was removed and the wells were washed with 100 uL of PBS. The PBS was removed that the wells were filled with 110 uL of serum free RPMI media containing the WST-8 reagent. After two hours of incubation, the plates absorbance was read at 450 nm and normalized to the control value.

Test [2] deals with Na+ channel site 2 binding site. Put plainly: [3H]-BTX assay, rat forebrain membranes. The conditions noted are these: ± S.E.M., n in brackets. The procedure: In order to determine if the hermitamides bind to the sodium channel, the natural products, their enantiomers, and the racemic mixture were tested for their ability to displace [^3H]-batrachatoxin. Batrachatoxin is a lipid-soluble neurotoxin that binds to site 2 of the sodium channel. This site is known to overlap with the local anesthetic binding […]. Ligands known to bind to […] of the sodium channel include anesthetics, anticonvulsants and antiarrthymics. As a control, phenyloin, a clinically-used sodium channel blocker that is known to displace [^3H]BTX was also included.
The assays were run at 10 μM and recorded as percent displacement of BTX.
Briefly, rat forebrain membranes (10 mg tissue/well) were incubated with [^3H]-BTX (30-60 Ci/mmol). […] The reaction was terminated by rapid vacuum filtration of the reaction contents onto glass fiber filters. Radioactivity trapped onto the filters was determined and compared with control values to ascertain any interactions of the test compound with the Na^+ channel site 2 binding site. Aconitine (1 μM) was used as a positive control (Sigma Aldrich, Inc., St. Louis, Mo.).

The test system of another test is neuronal VGSCs. The conditions noted are these: read-out: inactivated state-dependent blocking activity IC50 in neuronal VGSCs; cited from earlier work.

Read-outs that look alike come from different tables or passages of the source.

T1 sequence (Q15858 whole entry): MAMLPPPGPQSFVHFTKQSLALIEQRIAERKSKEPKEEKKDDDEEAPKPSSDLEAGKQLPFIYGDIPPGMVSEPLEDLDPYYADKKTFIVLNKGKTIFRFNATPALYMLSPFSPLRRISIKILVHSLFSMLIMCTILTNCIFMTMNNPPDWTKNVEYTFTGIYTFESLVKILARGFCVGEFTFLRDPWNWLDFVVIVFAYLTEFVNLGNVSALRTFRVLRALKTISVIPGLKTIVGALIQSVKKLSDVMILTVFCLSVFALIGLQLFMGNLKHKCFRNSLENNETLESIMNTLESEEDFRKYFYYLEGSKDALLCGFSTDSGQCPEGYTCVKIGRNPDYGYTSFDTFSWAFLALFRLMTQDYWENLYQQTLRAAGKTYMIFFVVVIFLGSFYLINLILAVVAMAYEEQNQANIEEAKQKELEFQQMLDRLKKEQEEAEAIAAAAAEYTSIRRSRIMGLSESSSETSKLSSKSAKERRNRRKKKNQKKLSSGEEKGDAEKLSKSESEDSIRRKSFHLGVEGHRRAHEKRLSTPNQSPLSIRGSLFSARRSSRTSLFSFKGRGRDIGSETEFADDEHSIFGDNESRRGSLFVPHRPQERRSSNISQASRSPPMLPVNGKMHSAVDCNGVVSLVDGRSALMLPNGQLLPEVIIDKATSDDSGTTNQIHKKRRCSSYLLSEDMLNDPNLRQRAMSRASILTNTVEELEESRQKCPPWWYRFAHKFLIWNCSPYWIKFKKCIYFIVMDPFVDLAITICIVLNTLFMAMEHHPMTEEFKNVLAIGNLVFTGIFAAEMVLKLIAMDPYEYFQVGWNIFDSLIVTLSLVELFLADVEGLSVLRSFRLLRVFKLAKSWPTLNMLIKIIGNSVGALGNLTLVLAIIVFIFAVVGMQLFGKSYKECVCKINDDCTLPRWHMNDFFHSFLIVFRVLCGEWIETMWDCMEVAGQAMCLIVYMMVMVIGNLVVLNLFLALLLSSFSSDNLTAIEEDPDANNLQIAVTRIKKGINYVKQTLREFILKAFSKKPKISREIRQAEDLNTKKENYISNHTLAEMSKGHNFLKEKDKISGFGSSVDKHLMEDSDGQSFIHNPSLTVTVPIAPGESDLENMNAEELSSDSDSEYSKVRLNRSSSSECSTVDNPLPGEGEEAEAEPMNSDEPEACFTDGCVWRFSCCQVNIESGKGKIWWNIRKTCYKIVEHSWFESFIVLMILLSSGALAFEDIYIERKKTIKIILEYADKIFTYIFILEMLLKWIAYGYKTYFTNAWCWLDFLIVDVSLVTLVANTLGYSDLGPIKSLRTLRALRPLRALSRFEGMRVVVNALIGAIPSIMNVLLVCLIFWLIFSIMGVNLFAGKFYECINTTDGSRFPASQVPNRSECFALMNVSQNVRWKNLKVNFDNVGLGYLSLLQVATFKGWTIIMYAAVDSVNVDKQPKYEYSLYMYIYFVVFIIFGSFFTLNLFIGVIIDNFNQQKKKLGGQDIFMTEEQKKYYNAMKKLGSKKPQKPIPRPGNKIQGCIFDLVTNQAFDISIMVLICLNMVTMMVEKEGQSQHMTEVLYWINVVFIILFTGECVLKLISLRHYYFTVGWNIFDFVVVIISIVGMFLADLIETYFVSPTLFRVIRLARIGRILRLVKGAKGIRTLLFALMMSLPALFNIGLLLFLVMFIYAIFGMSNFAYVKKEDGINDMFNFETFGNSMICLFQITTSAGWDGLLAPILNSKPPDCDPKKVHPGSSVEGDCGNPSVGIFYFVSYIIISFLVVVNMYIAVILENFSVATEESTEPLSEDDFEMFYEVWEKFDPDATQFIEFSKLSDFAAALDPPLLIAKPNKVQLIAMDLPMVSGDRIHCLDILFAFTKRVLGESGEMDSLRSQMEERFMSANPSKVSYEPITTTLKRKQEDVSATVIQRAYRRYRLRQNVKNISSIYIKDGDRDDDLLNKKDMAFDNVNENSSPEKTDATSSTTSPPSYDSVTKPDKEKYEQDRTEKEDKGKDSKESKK

What is called IC50 is the concentration that inhibits the measured activity by half. One may read the GI50 as the concentration at which growth is held to half of that of the control. On to `O=C1NC(=O)C(c2ccccc2)(c2ccccc2)N1` [DPH, Diphenylhydantoin, reference compound], for which the IC50 on hNav1.7 is over 100 µM; with neuronal VGSCs, 40 µM. In addition, the “less likely to be diagnosed with prostate cancer” value in test [1] turned out to be 40%. Moreover, the GI50 in the test on PC-3 cells (read-out: GI50 in PC3 prostate cancer cells) and in the test on PC-3 cells (read-out: PC3 GI50 (μg)) was over 100 µM in each case. Moreover, in test [2], the “% [3H]-BTX Displacement At 10 μM” value was 19.78 ± 1.21 (2) %.
